Several values for one entry are separate records, joined by “and”; a condition that tells them apart may be missing. Equal entries are not always repeated. Structures can show the parent of a compound that is named as a salt. Where two headings read alike, the source gives them in different places.
Experiments:
α1 = assay: in vitro α1 binding, [3H]WB-4101 (Table IV)
Method: (§1) In this Example the compounds of Examples I-XI were tested in vitro for α1 and α2 binding. The compound of Example I was tested as its monochloride 2-propanolate hydrate, i.e. as C22 […] CLN4 O4 S .HCl.0.2(CH3)2 CHOH 0.15H2 O. In the testing specific brain tissues were prepared as sources of binding sites. Aliquots of the washed members are incubated with a low concentration of […]. After incubation at suitable temperature, the reaction mixture is treated to separate the membrane-bound radioligand Radioactivity is measured. Linear regression analysis of the probit value for the percent of binding occurring in the presence of varying concentrations of the compound of interest plotted against the concentration of the compound yields concentrations which inhibit 50% specific binding, the IC50. The assay buffer is 50 mM Hepes.KOH, pH 7.4. The ligand is [^3 H]WB-4101 from New England Nuclear for α1 and [^3 H]Clonidine from New England Nuclear for α2. The results are considered against phentolamine methanesulfonate (Reference) which is considered a good α-binder.

α2 = assay: in vitro α2 binding, [3H]Clonidine (Table IV)
Method: as §1

[1] = test system: α blocking activity (phenylephrine); assay: in vivo α blocking activity, phenylephrine (PE) as α-agonist (Table III); set-up: species or system rat; ED50: unit not given beside the values; details: for in vivo α blocking activity (in words): conclusion from Table III
Method: In this example the compounds of Examples I (modified), II, III, V, VI, VII, VIII, IX and XI were tested in rats for in vivo α blocking activity according to methodology described at page 312 of Deitchman, et al., Journal of Pharmacological Methods, 3, 311-321 (1980). In this test phenylephrine (PE below) or norepinephrine (NE below) was administered as an α-agonist to the rats before and after dosing with the test drug and the average interpolated dose or PE/NE effecting a 50 mm Hg increase in mean arterial blood pressure was determined. Table III below records the results. In such Table, ED50 stands for such average interpolated dose and Average Dose Shift stands for the average ratio of ED50 after drug administration to ED50 before drug administration. The compound of Example I was tested as its monochloride 2-propanolate hydrate, i.e. as C22 H27 ClN4 O4 S.HCl 0.2(CH3)2 CHOH.0.15H2 O in Tests 1-5 and as the 3/4 mole hydrochloride, i.e. C22 H27 ClN 4 O4 S.3/4HCL in Tests 2a and 3a. The route was intravenous except in the case of the runs of Test Nos. 2a, 3, 3a, 26-29 the route was oral.

[2] = conscious rat diuretic screen of Lipschitz (Table I); type: in vivo, rat (female Sprague Dawley; male Okamoto-Aoki); details: female Sprague Dawley rats; for response vs control in vivo at 3 mg/kg / response vs control in vivo at 30 mg/kg / response vs control in vivo at 0.3 mg/kg: Rattus norvegicus, po
Method: With respect to diuretic utility there can be mentioned the conscious rat diuretic screen of Lipschitz, et al. (J. Pharmacol. Exp. Therap. 79, 97-110 (1943)). In this test, dose response assays of diuretic, natruiretic and kaliuretic activity are determined by oral administration of the test substance. The compounds synthesized in Examples I-XI were tested for diuretic […]. The compound of Example I was tested as its monohydrochloride 2-propanolate hydrate, i.e. as C22 […] ClN4 O4 S.HCl. 0.2(CH3)2 CHOH.0.15H2 O. Testing was carried out by the diuretic screen of Lipschitz, et al. described previously. In Table I below Volume Ratio is the ratio of total volume excreted for the test comuound compared to the total volume excreted for the control, Na^+ Ratio is the Na^+ excreted for the test compound compared to the Na^+ excreted for the control, K^+ Ratio is the K^+ excreted for the test compound compared to the K^+ excreted for the control. Female Sprague Dawley rats were used in Test Nos. 1, 2, 6, 7, 11-29. Male Okamoto-Aoki rats were used in Test Nos. 3-5 and 8-10 and testing for antihypertensive activity was carried out simultaneously on the Test Nos. 3-5 rats. In some instances, compounds were retested at the same dose level.

[3] = test system: Spontaneously Hypertensive rat; assay: antihypertensive activity, Spontaneously Hypertensive Rat (Table II); type: in vivo; details: for antihypertensive effect (in words): conclusion from Table II (SHR, and DOCA for Examples I-IV)
Method: Spontaneously Hypertensive Rat Male rats weighing 300-400 g, previously conditioned to the procedure, are prewarmed in a heating chamber (30° C.) for 10-20 min. and subsequently restrained in a wire holder at that temperature. Systolic blood pressure and heart rate are measured by the tailcuff technique using a pneumatic pulse transducer and a biotachometer before, and 2, 4, and 24 hours after oral administration of vehicle (0.25% Methocel in water) or test compounds suspended in vehicle at a dose volume equivalent to 5 ml/kg. Blood pressure and heart rate data are reported as changes from zero-hour measurements with vehicle control groups run periodically to confirm that the vehicle has no effect. Testing was carried out on the compounds of Examples I-XII for antihypertensive activity. In the case of all the compounds testing was carried out on the Spontaneously Hypertensive rat as described hereinbefore. In the case of the compounds of Examples I-IV testing was also carried out on the DOCA-salt Hypertensive Rat. The compound of Example I was tested as its monochloride 2-propanolate hydrate, i.e. as C22 […] ClN4 O4 S.HCl.0.2(CH3)2 CHOH.0.15H2 O in Tests 1-5; and as the 3/4 mole hydrochloride, i.e. C22 […] ClN4 O4 S: 3/4 HCl in Tests 3a, 4a, 5a-5d. Test results are set forth in Table II below wherein SHR stands for Spontaneously Hypertensive rat, DOCA stands for DOCA-salt Hypertensive Rat, ΔBP stands for the change in systolic blood pressure in mm Hg, ΔHR stands for the change in mean heart rate in beats per minute and the times set forth are the times after dosing. A peak change in ΔBP of more than 20 is considered as indicating activity.

[4] = [3H]WB-4101, brain tissue, 50 mM Hepes.KOH, pH 7.4, read-out: α1 Binding IC50
[5] = ED50 after/before drug, PE, dose 10, intravenous
[6] = 3 mg/kg oral, read-out: K+ Ratio
[7] = 3 mg/kg oral, read-out: Na+ Ratio
[8] = 3 mg/kg oral, read-out: Volume Ratio
[9] = 30 mg/kg oral, read-out: K+ Ratio
[10] = 30 mg/kg oral, read-out: Na+ Ratio
[11] = 30 mg/kg oral, read-out: Volume Ratio
[12] = [3H]Clonidine, brain tissue, 50 mM Hepes.KOH, pH 7.4, read-out: α2 Binding IC50

Compound	IC50 (α1; [4])	Average Dose Shift [1, 5]	Urinary Na/K (Test Compound) ([2]; 3 mg/kg oral)	Urinary Na/K (Test Compound) ([2]; 30 mg/kg oral)	response vs control in vivo at 3 mg/kg [2, 6]	response vs control in vivo at 3 mg/kg [2, 7]	response vs control in vivo at 3 mg/kg [2, 8]	response vs control in vivo at 30 mg/kg [2, 9]	response vs control in vivo at 30 mg/kg [2, 10]	response vs control in vivo at 30 mg/kg [2, 11]	ΔBP 2 hours ([3]; SHR, 30 mg/kg oral)	ΔBP 4 hours ([3]; SHR, 30 mg/kg oral)	ΔHR 2 hours ([3]; SHR, 30 mg/kg oral)	ΔHR 4 hours ([3]; SHR, 30 mg/kg oral)	IC50 (α2; [12])	antihypertensive effect (in words) [3]	further results
Cc1ccc(N(CC2=NCCN2)c2cccc(O)c2)cc1 [phentolamine methanesulfonate, reference compound]																	IC50 (α1; phentolamine methanesulfonate reference run in the α1 tests, read-out: Reference IC50): 3.68 nM and 3.47 nM and 4.76 nM; IC50 (α2; phentolamine methanesulfonate reference run in the α2 tests, read-out: Reference IC50): 5.45 nM and 3.12 nM
NS(=O)(=O)c1cc2c(cc1Cl)CN(CCCN1CCN(C(=O)c3ccc(F)cc3)CC1)C2=O [Example VIII, 1-[3-[5-(Aminosulfonyl)-6-chloro-1,3-dihydro-3-oxo-2H-isoindol-2-yl]propyl]-4-(4-fluorobenzoyl)piperazine]	144000 nM	1 ± 0.1	2.60	3.69	94%	98%	89%	99%	142%	122%	-9 ± 5 mm Hg	-9 ± 4 mm Hg	2 ± 15 beats per minute	24 ± 15 beats per minute	> 1000 nM		
Cl.N#Cc1cccnc1N1CCN(CCCN2Cc3cc(Cl)c(S(N)(=O)=O)cc3C2=O)CC1 [Example VI, 6-chloro-2-[3-[4-(3-cyano-2-pyridinyl)-1-piperazinyl]propyl]-2,3-dihydro-3-oxo-1H-isoindole-5-sulfonamide hydrochloride]	305 nM	27 ± 3	3.55	3.90	98%	169%	153%	111%	204%	174%	-17 ± 10 mm Hg	-7 ± 11 mm Hg	6 ± 41 beats per minute	-10 ± 18 beats per minute	3330 nM		in vivo α blocking activity (in words) [1]: active as in vivo α blockers; Average Dose Shift ([1]; iv): 3 ± 0.2; ED50 ([1]; iv): 9.8
NS(=O)(=O)c1cc2c(cc1Cl)CN(CCCN1CCN(Cc3ccccc3)CC1)C2=O [Example V, 6-chloro-2,3-dihydro-3-oxo-2-[3-[4-(phenylmethyl)-1-piperazinyl]propyl]-1H-isoindole-5-sulfonamide]	933 nM	1.7 ± 0.3		4.14		145%	128%	133%	271%	220%	-27 ± 10 mm Hg	-30 ± 14 mm Hg	-6 ± 15 beats per minute	-39 ± 14 beats per minute	1780 nM	good antihypertensive effect without significantly affecting heart rate	Urinary Na/K (Test Compound) ([2]; 0.3 mg/kg oral): 2.33; response vs control in vivo at 0.3 mg/kg ([2]; 0.3 mg/kg oral, read-out: K+ Ratio): 99%; response vs control in vivo at 0.3 mg/kg ([2]; 0.3 mg/kg oral, read-out: Na+ Ratio): 97%; response vs control in vivo at 0.3 mg/kg ([2]; 0.3 mg/kg oral, read-out: Volume Ratio): 89%
NS(=O)(=O)c1cc2c(cc1Cl)CN(CCCN1CCN(c3cccc(C(F)(F)F)c3)CC1)C2=O [Example IX, 6-chloro-2,3-dihydro-3-oxo-2-[3-[4-[3-(trifluoromethyl)phenyl]-1-piperazinyl]propyl]-1H-isoindole-5-sulfonamide hydrochloride hemihydrate]	108 nM	6 ± 0.6	2.99	3.67	106%	127%	102%	140%	212%	184%	-34 ± 14 mm Hg	-32 ± 10 mm Hg	6 ± 17 beats per minute	0 ± 14 beats per minute	> 1000 nM	good antihypertensive effect without significantly affecting heart rate	in vivo α blocking activity (in words) [1]: weakly active; Average Dose Shift ([1]; iv): 2.2; ED50 ([1]; iv): 11.3
Cl.NS(=O)(=O)c1cc2c(cc1Cl)CN(CCCN1CCN(C(=O)c3ccccc3)CC1)C2=O.O [Example VII, 1-[3-[5-(aminosulfonyl)-6-chloro-1,3-dihydro-3-oxo-2H-isoindol-2-yl]propyl]-4-benzoylpiperazine hydrochloride monohydrate]	152000 nM	> 1.0	2.07	3.27	113%	92%	89%	111%	140%	112%	-7 ± 8 mm Hg	-14 ± 3 mm Hg	-32 ± 14 beats per minute	-74 ± 24 beats per minute	> 1000 nM		ED50 ([1]; ED50 of PE after test drug, dose 10, intravenous): 2.6
COc1ccc(F)cc1N1CCN(CCCN2Cc3cc(Cl)c(S(N)(=O)=O)cc3C2=O)CC1 [Example XII, 6-chloro-2,3-dihydro-2-[3-[4-(3-fluoro-6-methoxyphenyl)-1-piperazinyl]propyl]-3-oxo-1H-isoindole-5-sulfonamide]																good antihypertensive effect without significantly affecting heart rate	peak change at 2 hours in ΔBP ([3]; SHR, 30 mg/kg oral): -64 mm Hg
